Data taken from publication PMC11375794, “Discovery of new Hsp90–Cdc37 protein–protein interaction inhibitors: in silico screening and optimization of anticancer activity” (RSC Advances, 2024).

Tests used:
[1] = tested on: Ewing sarcoma cell line SK-N-MC; test: MTS cell viability (antiproliferative) assay in SK-N-MC; format: cell-based; details: Homo sapiens, SK-N-MC, 72 hours, mean ± SD
Method: (§1) Hormone-positive breast cancer cell line MCF-7 (ATCC-HTB-22; ATCC) was grown in Dulbecco's Modified Eagle's Medium (DMEM), while Ewing sarcoma cell line SK-N-MC (a kind gift from Beat Schäfer) and THP-1 (ATCC-TIB-202; ATCC) cells were grown in Roswell Park Memorial Institute (RPMI) 1640. The medium was supplemented with 10% heat-inactivated fetal bovine serum (Gibco, Thermo Fisher Scientific, Waltham, MA, USA), 100 U per mL penicillin, 100 μg per mL streptomycin, and 2 mM L-glutamine (all from Sigma-Aldrich, St. Louis, MO, USA). All cell lines were incubated at 37 °C in a 5% CO2 atmosphere.
(§2) The antiproliferative activity of the compounds was evaluated against MCF-7 (ATCC-HTB-22; ATCC), SK-N-MC (a kind gift from Beat Schäfer) and THP-1 (ATCC-TIB-202; ATCC) cancer cell lines using the MTS assay (Promega, Madison, WI, USA). Cells were seeded in 96-well plates at a density of 2 × 10^4 cells per mL in 100 μL of growth medium for THP-1 and were treated with compounds and controls directly, while 3 × 10^3 cells per mL for MCF-7 and SK-N-MC were seeded in 100 μL of growth medium and allowed to adhere overnight following the treatment. In all cases the cells were treated with respective newly prepared compounds, positive controls (17-DMAG for MCF-7 and SK-N-MC; PU-H71 for THP-1) and a vehicle control (0.5% DMSO). The incubation time after treatment was 72 hours, then CellTiter96® Aqueous One Solution Reagent (Promega, Madison, WI, USA) was added to each well. Following a 3 hours incubation, absorbance was measured at 492 nm using BioTek's Synergy™ 4 Hybrid Microplate Reader (Winooski, VT, USA). The measurements were performed in two biological repetitions and each time the experiment was performed in a triplicate. The IC50 values, representing the concentration of inhibitor required for half-maximal inhibition, are the average of three independent experiments and were calculated using GraphPad Prism 9.5.0 software (San Diego, CA, USA).

[2] = Solubility as observed in MST; format: physicochemical; details: MST assay buffer
Method: The full-length Hsp90β was labeled using the Monolith His-Tag Labeling Kit RED-tris-NTA following the manufacturer's instructions (NanoTemper Technologies GmbH, Munich, Germany). The proteins were first diluted to a concentration of 8 nM in assay buffer (50 mM Tris–HCl, pH 7.4, containing 150 mM NaCl, 5% ethanol, and 10 mM MgCl2). To determine the Kd values, the proteins were mixed with the test compounds in a 1 : 1 ratio as stated in the manufacturers protocol. The final concentration of Hsp90β was 4 nM, with compounds added in the following ranges: 1000 μM to 5.86 μM for 8c; 312.5 μM to 0.15 μM for 13g and 125 μM to 3.91 μM for 1. Two independent Kd determinations were performed for compounds 8c and 13g. […] Next, Cdc37 (AR09008PUN, OriGene Technologies, Inc., Rockville, MD, USA) was acquired for the purpose of PPI inhibition evaluation between full-length Hsp90β and Cdc37. […] In all experiments the compounds were incubated with the proteins for 15 minutes in the dark at room temperature. […] Thermophoresis was induced at 1475 ± 15 nm and measured using a Monolith NT.115 pico instrument (NanoTemper Technologies GmbH, Munich, Germany). […] To calculate the Kd values, the average fluorescence responses for each concentration were plotted against the logarithm of compound concentrate on using GraphPad Prism software (GraphPad Software, Inc., La Jolla, CA).

[3] = molecular target: T1, full-length Hsp90β (Homo sapiens, UniProt P08238); test: Microscale thermophoresis (MST) binding to Hsp90β
T1 construct: For the protein expression of full-length Hsp90β, we received plasmids as a kind gift; made in house; host or cells: Escherichia coli strain Rosetta
T1 sequence (P08238 whole entry): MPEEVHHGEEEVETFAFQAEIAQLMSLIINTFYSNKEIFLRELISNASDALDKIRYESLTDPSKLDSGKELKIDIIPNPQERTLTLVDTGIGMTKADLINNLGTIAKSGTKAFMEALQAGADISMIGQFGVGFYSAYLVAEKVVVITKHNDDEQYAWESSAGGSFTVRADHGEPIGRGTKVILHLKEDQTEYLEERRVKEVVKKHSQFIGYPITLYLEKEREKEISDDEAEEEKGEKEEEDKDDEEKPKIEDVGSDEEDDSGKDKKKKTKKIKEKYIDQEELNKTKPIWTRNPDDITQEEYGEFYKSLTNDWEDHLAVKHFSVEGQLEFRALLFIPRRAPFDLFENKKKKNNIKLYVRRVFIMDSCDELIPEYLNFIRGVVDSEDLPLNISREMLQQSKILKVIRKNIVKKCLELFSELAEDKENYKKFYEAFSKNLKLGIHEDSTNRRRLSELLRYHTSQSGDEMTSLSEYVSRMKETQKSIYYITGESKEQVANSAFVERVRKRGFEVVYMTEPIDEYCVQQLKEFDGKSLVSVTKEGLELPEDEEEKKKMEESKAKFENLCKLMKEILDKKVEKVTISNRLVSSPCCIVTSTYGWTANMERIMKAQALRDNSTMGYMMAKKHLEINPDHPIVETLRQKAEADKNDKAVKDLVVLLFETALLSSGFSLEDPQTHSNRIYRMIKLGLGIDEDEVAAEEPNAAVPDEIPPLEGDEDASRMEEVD
Method: For the protein expression of full-length Hsp90β, we received plasmids as a kind gift from Dr Asta Zubriené at the Institute of Biotechnology, Vilnius University, Lithuania. Hsp90β, tagged with N-terminal 6×His-tag, was expressed in Escherichia coli strain Rosetta. The cells were cultured in LB media supplemented with kanamycin (50 μg mL^−1) and chloramphenicol (34 μg mL^−1) at 37 °C, and protein expression was initiated with 0.5 mM isopropyl β-D-1-thiogalactopyranoside (IPTG) when the OD600 reached 0.8. Following induction, the cells were incubated for 16 hours at 18 °C before being harvested by centrifugation. The cells were resuspended in a lysis buffer containing 40 mM potassium phosphate pH 8.0, 400 mM KCl, 10 mM imidazole, and protease inhibitors (Sigma), and then lysed by sonication. After centrifugation, the proteins were initially purified using a Ni^2+-affinity HisTrap column (GE Healthcare). Impurities were washed away with lysis buffer containing 20–40 mM imidazole, and Hsp90β was subsequently eluted with lysis buffer containing 300 mM imidazole. The purification process continued with size exclusion chromatography (SEC) using a Superdex-200 (16/600) column (GE Healthcare) and a running buffer of 50 mM Tris pH 7.5 at room temperature, 300 mM KCl. The purity of the fractions was confirmed by SDS-PAGE, and they were then concentrated. For the NMR experiments, Hsp90β was dialyzed against NMR buffer (50 mM potassium phosphate pD 7.5, 100 mM KCl, 2 mM DTT (98%, D10) in D2O) and subsequently frozen in liquid nitrogen.
The full-length Hsp90β was labeled using the Monolith His-Tag Labeling Kit RED-tris-NTA following the manufacturer's instructions (NanoTemper Technologies GmbH, Munich, Germany). The proteins were first diluted to a concentration of 8 nM in assay buffer (50 mM Tris–HCl, pH 7.4, containing 150 mM NaCl, 5% ethanol, and 10 mM MgCl2). To determine the Kd values, the proteins were mixed with the test compounds in a 1 : 1 ratio as stated in the manufacturers protocol. The final concentration of Hsp90β was 4 nM, with compounds added in the following ranges: 1000 μM to 5.86 μM for 8c; 312.5 μM to 0.15 μM for 13g and 125 μM to 3.91 μM for 1. Two independent Kd determinations were performed for compounds 8c and 13g. […] Next, Cdc37 (AR09008PUN, OriGene Technologies, Inc., Rockville, MD, USA) was acquired for the purpose of PPI inhibition evaluation between full-length Hsp90β and Cdc37. […] In all experiments the compounds were incubated with the proteins for 15 minutes in the dark at room temperature. The mixtures were then loaded into Monolith NT.115 Premium Capillaries (NanoTemper Technologies GmbH, Munich, Germany). Thermophoresis was induced at 1475 ± 15 nm and measured using a Monolith NT.115 pico instrument (NanoTemper Technologies GmbH, Munich, Germany). Measurements were conducted at ambient temperature (24–25 °C), with excitation power set to 20% and MST power set to 40%, and a laser on time of 5 seconds. To calculate the Kd values, the average fluorescence responses for each concentration were plotted against the logarithm of compound concentrate on using GraphPad Prism software (GraphPad Software, Inc., La Jolla, CA).

[4] = tested on: leukemia cell line THP-1; test: MTS cell viability (antiproliferative) assay in THP-1; format: cell-based; details: Homo sapiens, THP-1, 72 hours, mean ± SD
Method: as §1, §2

[5] = tested on: MCF-7 breast cancer cell line; test: MTS cell viability (antiproliferative) assay in MCF-7; format: cell-based; details: Homo sapiens; for IC50: MTS assay, 72 hours, mean ± SD
Method: as §1, §2

[6] = molecular target: wild-type Hsp90; set-up: method as in PMID 31555737; details: cited from earlier work
[7] = tested on: Hsp90 client protein levels (Cdk4, Akt, c-Raf, ERα, IGF1R) and Hsp70, Hsp90 in MCF-7 cells; test: Western blot of Hsp90 client proteins and heat shock proteins; format: cell-based; details: MCF-7, 20 μM, 24 hours
Method: MCF-7 cells were treated with compounds 8c (20 μM and 50 μM), 13g (20 μM and 50 μM) and DDO-5936 (20 μM) or 0.5% DMSO as a negative control. The cells were incubated with the compounds or negative control for 24 hours. After incubation, the cells were rinsed with PBS (Gibco, Thermo Fisher Scientific, Waltham, MA, USA) and lysed using RIPA buffer containing 50 mM Tris–HCl pH 7.4, 150 mM NaCl, 1% NP-40, 0.5% sodium deoxycholate, and 1 mM EDTA. The RIPA buffer was further supplemented with Halt™ Protease Inhibitor Cocktail and Halt™ Phosphatase Inhibitor Cocktail (both from Thermo Fisher Scientific, Waltham, MA, USA) at a 1 : 100 dilution. The lysates were then frozen for at least 24 hours. Upon thawing, the lysates were sonicated and centrifuged at 15 000 rpm for 20 minutes at 4 °C. Only the supernatants were collected, and protein concentration was measured using the DC protein assay (Bio-Rad, Hercules, California, USA). Proteins (20 μg) were separated by SDS-PAGE on a 10% acrylamide/bisacrylamide gel, running at 80 V for 15 minutes followed by 130 V for 60 minutes. The separated proteins were then transferred onto a nitrocellulose membrane using the iBlot 2 Dry Blotting System (Thermo Fisher Scientific, Waltham, MA, USA). The membranes were blocked with 5% BSA for 1 hour at room temperature to prevent nonspecific binding. Primary antibodies were then added, and the membranes were incubated overnight at 4 °C. The primary antibodies (Cell Signaling, Danvers, MA, USA) used included anti-β-ActinMouse mAb (1 : 5000), anti-Hsp90 Rabbit mAb (1 : 1000), anti-Hsp70 Mouse mAb (1 : 1000), anti-IGF1R Rabbit (1 : 1000), anti-CDK4 Rabbit (1 : 1000), anti-ERα Mouse mAb (1 : 1000), anti-Akt Rabbit mAb (1 : 1000), and anti-c-Raf Rabbit mAb (1 : 1000). Secondary antibodies included anti-rabbit IgG, HRP-linked antibody (1 : 10 000), and anti-mouse IgG, HRP-linked antibody (1 : 10 000), which were incubated with the membranes for 1 hour at room temperature. Following washes, SuperSignal™ West Femto Maximum Sensitivity Substrate (Thermo Fisher Scientific, Waltham, MA, USA) was applied. Visualization of the blots was performed using the UVITEC Cambridge Imaging System (UVITEC, Cambridge, UK), and densitometric analysis of the western blot bands was conducted using NineAlliance software. Relative protein densities were calculated in relation to β-actin, used as a loading control.

[8] = molecular target: Asp47Ala mutant of Hsp90; set-up: method as in PMID 31555737; details: cited from earlier work

Row | Structure (SMILES) | IC50 [1] [µM] | solubility [2] | concentrations at which an increase in binding could be detected [3] | highest concentration without compound-induced protein aggregation [3] [µM] | binding to Hsp90β (qualitative) ([3]; 125 μM to 3.91 μM) | IC50 [4] [µM] | IC50 ([5]; MCF7, 72 h) [µM] | Kd [6] [µM] | ERα level [7] | Kd [8] [µM] | inhibition at 50 µM ([5]; MCF7, MCF-7, at 50 μM, read-out: growth inhibition) [%] | IC50 ([5]; MCF7) [µM]
1 | Cc1nc(Nc2nc(C(=O)N(C)CCOc3ccccc3)cs2)cc(C2CCCN(CC#N)C2)n1 (centres unmarked) [Compound 1] | 25 ± 0.4 | poor | above 39 μM | 125 | confirmed qualitatively | > 50 | 29.5 ± 5.4 | – | – | – | – | –
2 | Cc1cc(C)c(S(=O)(=O)N(CC(=O)O)c2ccc(Nc3ccnc(N4CCCC4)n3)cc2)c(C)c1 [DDO-5936, reference compound] | > 50 | – | – | – | – | > 50 | – | 3.86 | downregulated | > 100 | 17 | > 50
